These are literature values, as cited in US20250313903A1, “NEOANTIGEN IMMUNOTHERAPY” (Gradalis, Inc., priority 2023, published 2025).

In series [1] the test system is previously treated, PD-L1 positive, advanced NSCLC. Conditions: in vivo.
Series [2] deals with advanced renal cell cancer. The note with it: in vivo.
The test system of series [3] is Stage IIIb/IV newly diagnosed ovarian cancer. Conditions: follow up at 74 months.
Series [4] deals with newly diagnosed advanced high-grade ovarian cancer.
In series [5] the test system is triple-negative breast cancer. The note with it: PD-L1 (TPS) ≥1% cut-off.
Series [6] has as its system extensive stage SCLC, 1st line setting. The note with it: atezolizumab added to carboplatin and etoposide, vs. placebo.
Series [7] relates to newly diagnosed stage III/IV ovarian cancer.
Series [8] has as its system metastatic NSCLC, 2nd line post platinum-based chemotherapy. Conditions: regardless of PD-L1 expression or histology.
The subject of series [9] is advanced urothelial carcinoma, 2nd line setting. Conditions: in vivo.
In series [10] the test system is stage III-IV ovarian cancer.
For series [11], the system named is chemo-refractory, metastatic Merkel cell carcinoma.
Series [12] relates to advanced renal cell carcinoma. Conditions: Avelumab + Axitinib vs. sunitinib.
For series [13], the system named is recurrent or metastatic cervical cancer after platinum-based chemotherapy. The note with it: vs. investigator-choice chemotherapy.
For series [14], the system named is locally advanced, metastatic squamous cell carcinoma.
Series [15] concerns advanced/metastatic urothelial carcinoma, platinum-refractory.
Series [16] relates to refractory/relapse primary mediastinal large B-cell lymphoma. The note with it: in vivo.
Series [17] deals with unresectable/metastatic urothelial cancer; 2nd line. The note with it: for median OS: vs. chemotherapy.
Series [18] deals with unresectable/metastatic urothelial cancer, cisplatin-ineligible. The note with it: 1st line, CPS ≥10.
Series [19] has as its system unresectable or metastatic, untreated melanoma. The note with it: for 24-months OS / 24-months PFS: PD-L1 ≥1%; for 1-year OS / PFS (1-year PFS in Table 3): in vivo.
The test system of series [20] is advanced non-colorectal dMMR tumors. Conditions: in vivo.
Series [21] relates to untreated, non-squamous NSCLC without sensitizing mutations. Conditions: pembrolizumab plus chemotherapy vs. chemotherapy.
In series [22] the test system is metastatic NSCLC.
For series [23], the system named is MSI-H, dMMR or TMB-H solid tumors.
Series [24] concerns NSCLC. The note with it: irrespective of PD-L1 status.
In series [25] the test system is refractory classical Hodgkin's lymphoma. The note with it: in vivo.
Series [26] relates to persistent/recurrent or metastatic cervical cancer with PD-L1 CPS ≥1. The note with it: pembrolizumab vs. placebo + paclitaxel/platinum +/- bevacizumab.
In series [27] the test system is recurrent or metastatic head and neck squamous cell cancer. The note with it: first-line; monotherapy for CPS ≥1% or with chemotherapy.
Series [28] relates to untreated, PD-L1 ≥50 advanced NSCLC. The note with it: vs. chemotherapy.
Series [29] concerns lymph-node positive or metastatic melanoma after complete resection. Conditions: adjuvant.
Series [30] deals with untreated unresectable/metastatic melanoma. The note with it: combination vs. ipilimumab alone.
Series [31] has as its system unresectable, previously treated, late-stage melanoma. Conditions: 3 mg/kg every 3 weeks, alone or with gp100.

Where two headings read alike, the source gives them in different places.

On to `CC(=O)O[C@@]12CO[C@@H]1C[C@H](O)[C@@]1(C)C(=O)[C@H](O)C3=C(C)[C@@H](OC(=O)[C@H](O)[C@@H](NC(=O)OC(C)(C)C)c4ccccc4)C[C@@](O)([C@@H](OC(=O)c4ccccc4)[C@H]21)C3(C)C` [docetaxel], for which the OS in series [1] was 8.5 months.

With `CO[C@H]1C[C@@H]2CC[C@@H](C)[C@@](O)(O2)C(=O)C(=O)N2CCCC[C@H]2C(=O)O[C@H]([C@H](C)C[C@@H]2CC[C@@H](OCCO)[C@H](OC)C2)CC(=O)[C@H](C)/C=C(\C)[C@@H](O)[C@@H](OC)C(=O)[C@H](C)C[C@H](C)/C=C/C=C/C=C/1C` [everolimus], the OS in series [2] was 19.6 months.

As to `NC(=O)c1cccc2cn(-c3ccc([C@@H]4CCCNC4)cc3)nc12` [niraparib], the “OS HR” value in series [3] (HRP) is 0.93; in series [3] (overall) it was 1.01.

On to `CNCc1ccc(-c2[nH]c3cc(F)cc4c3c2CCNC4=O)cc1` [rucaparib], for which the values for the PFS in [4] (BRCA-wt/LOH low patients) and in [4] (in vivo) were 12.1 months and 20.2 months, respectively.

Consider Atezolizumab: PD-L1 blocking antibody, for which the “OS (in words)” value in series [5] and in series [8] was “OS benefit” in each case. The results for the “median OS” value in series [6] and in series [6] (listed as atezolizumab) were “Median OS: 12.3 months” and 12.3 months, respectively. The “median PFS” value is “Median PFS: 5.2 months” in [6]; 5.2 months in series [6] (listed as atezolizumab); 19.5 months in series [7] (atezolizumab with carboplatin plus paclitaxel and bevacizumab). The “PFS HR vs. placebo arm” value in series [7] (HRP subgroup) is 0.82; in series [7] (PD-L1+ patients), 0.80; in [7] (with carboplatin plus paclitaxel and bevacizumab), 0.92. Further, the PFS in series [7] (PD-L1+ patients) is recorded as 20.8 months.

Consider Avelumab: PD-L1 blocking antibody, for which, in [9], the “24-month OS” value is “OS: 20.1%”, the CR is listed as 4.1%, the ORR result is “ORR: 16.5%; CR:” and the PR was 12.4%. Further, in series [9], the “median DoR” value was “Median DoR: 20.5 months”, the “median OS” value was “Median OS: 7.0 months” and the “median PFS” value was “Median PFS: 1.6 months”. Also, in [10] (avelumab in combination with chemotherapy), the “PFS HR vs. chemotherapy alone” value is listed as 1.14. Also, the “median PFS” value in series [10] (avelumab only group) is listed as 16.8 months. Also, in [10] (combination with chemotherapy), the “median PFS” value was 18.1 months. Further, in [10] (single agent avelumab maintenance), the “PFS HR vs. chemotherapy alone” value is 1.43. In series [11] (in vivo), the “CR, patients” value is 8/88 and the “ORR, responders/patients” value is given as 28/88. In series [11] (regardless of PD-L1), the ORR result is “ORR: 31.8%”. Besides, in series [12] (PD-L1+), the ORR is listed as 55.2% and the “median PFS” value is recorded as 13.8 months. Further, the “median PFS” value in series [12] (overall population) is given as “median PFS: 13.8”.

As for Cemiplimab, in series [13], the ORR result was “ORR: 16.4% vs. 6.3%”; the “median OS” value is “Median OS: 12.0 months”; the “median PFS: HR” value is reported as 0.75, p < 0.001. The ORR in [14] (Phase 1 expansion cohorts) was 50%. Moreover, in series [14] (Phase 2 metastatic-disease cohort), the response rates is recorded as 47.

With Durvalumab: PD-L1 blocking antibody, the ORR in series [15] (PD-L1 negative) was 0% (PD-L1 negative); in series [15] (PD-L1 negative, listed as durvalumab), “none”; in [15] (PD-L1 positive), “patients), 46.4%”; in series [15] (PD-L1 positive, listed as durvalumab), 46.4%; in series [15] (all patients), “ORR: 31% (all”; in [15] (all patients, listed as durvalumab), 31%.

On to “Pembrolizumab: fully humanized IgG4 antibody targeting PD-1”, for which the complete response rate in series [16] is on record as 13%. For the same compound, the response rate in [16] is reported as 45%; in series [22] (PD-L1 positivity) it was 45%; in series [25] it was 69%. The “OS benefit compared to chemotherapy” value in series [17] (in vivo) is on record as 3 months. For the same compound, the “median OS” value in [17] is listed as “Median OS: 10.3 months”; in [17] (listed as pembrolizumab), 10.3 months. Besides, the ORR result is on record as “ORR: 38%” in series [18]; 38% in [18] (listed as pembrolizumab); “studies: ORRs ~40%” in series [23] (MSI-H or dMMR solid tumors); ~40% in [23] (MSI-H or dMMR solid tumors, listed as pembrolizumab); 29% in [23] (TMB-H patients (Keynote-158)); 6% in series [23] (TMB-low patients (Keynote-158)). Also, the ORR result is recorded as “ORR: 44.8% vs. 27.8%” in series [28] and 44.8% in series [28] (listed as pembrolizumab). Besides, the figures for the OS in [1] and in series [27] were 10.4 months and 12.3 months, respectively. Moreover, in [19], the “24-months OS” value is given as 58%. The “24-months PFS” value in series [19] is 33%. In addition, in series [20], the “ORR across tumor types” value is recorded as 34%. The “complete response, patients” value in [20] is 10%. For the same compound, in series [21], the “PFS HR” value is given as “(HR: 0.53; p = 0.0049)”. The “median PFS” value in series [21] was “Median PFS: 19.0 months”; in series [21] (listed as pembrolizumab) it was 19 months; in series [26], “Median PFS: 10.4 months”; in series [28] it was “Median PFS: 10.3 months”; in [28] (listed as pembrolizumab), 10.3 months. Moreover, the responding tumors in series [22] (PD-L1 negative tumors) is on record as 15%. Moreover, the results for the “ORR, responders/patients” value in [23] (90 patients with advanced endometrial cancer) and in series [23] (98 patients with advanced cervical cancer) were 43/90 and 12/98, respectively. The “response rate, PFS and OS vs. chemotherapy (in words)” value in series [24] was “consistent response rate, PFS and OS advantage”. Moreover, the complete response in [25] was 22%. Also, the “median duration of response” value in series [25] was 11 months. Further, the “median DOR” value in series [26] is recorded as 18 vs. 10.4 months. In addition, the entries for the “6-months OS” value in series [28] and in series [28] (listed as pembrolizumab) were 80.2% vs. 72.4%; and 80.2%, respectively.

Consider “ipilimumab: FDA approved CTLA-4 inhibitor”, for which, in [19], the “24-months OS” value is 45%, the “24-months PFS” value is 13%, the “1-year OS” value is 58.2% and the “PFS (1-year PFS in Table 3)” value was 26.5%. In series [19] (listed as Ipilimumab), the “1-year OS” value is on record as “(vs. 58.2%;” and the “PFS (1-year PFS in Table 3)” value was 26.5%; p < 0.001);. Besides, the “12-month RFS” value in series [29] was 60.8%. Besides, the “median PFS” value in series [30] is 4.4 months. Also, the “OS vs. gp100 alone (in words)” value in series [31] was “OS advantage”.
